Reference: patent US20140288040A1, “SUBSTITUTED BENZYLAMINE COMPOUNDS, THEIR USE IN MEDICINE, AND IN PARTICULAR THE TREATMENT OF HEPATITIS C VIRUS (HCV) INFECTION” (ASTEX THERAPEUTICS LIMITED, priority 2011, published 2014)
Counter-ions that a name gives are not always drawn. Like-named read-outs stand apart in the source and are kept apart here.

Experiments:
[1] = biological target: T1, HCV NS3 protease (full length NS34a) (Hepatitis C virus genotype 1b, UniProt P26663); test: HCV NS3 protease assay (FRET, full length NS34a); type: biochemical
T1 construct: The protease activity of the full length NS34a was measured using a FRET-based assay; made in house
Summary of the method: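 Full-length NS34a incubated with compound and an NS4AB cleavage-site FRET peptide (QXL520 quencher, 5-FAMsp fluorophore) in 50 mM Tris pH8, 20 mM DTT, 1% CHAPS, 10% glycerol, 5% DMSO. Fluorescence followed for 30 minutes at room temperature; IC50 from initial rates of replicate progress curves.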

[2] = test system: HCV subgenomic replicon in Huh-7 cells; test: Replicon assay, EC50 luciferase readout; type: cell-based, hepatitis C virus (HCV); settings: Hepatitis C virus, Huh-7, 72 h, single value, or second value of a pair x:y
Summary of the method: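 Huh-7 cells carrying a subgenomic HCV replicon (NS3-NS5b, firefly luciferase-neo fusion) were treated with compound for 72 h at 37°C, 5% CO2. EC50 derived from Bright-Glo luciferase signal as a proxy for HCV RNA; cell viability measured in parallel by Alamar blue.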

[3] = protease activity of full length NS34a, FRET peptide substrate, read-out: Activity IC50
[4] = Huh-7 replicon cells, 72 h, read-out: Activity EC50 (μM) (EC50 luciferase readout)
[5] = read-out: Activity EC50 (μM) (EC50 luciferase readout), Huh-7 replicon cells, 72 h

T1 sequence (P26663 1658-1711): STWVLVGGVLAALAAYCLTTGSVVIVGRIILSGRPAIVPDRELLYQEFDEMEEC
T1 sequence (P26663 1027-1657): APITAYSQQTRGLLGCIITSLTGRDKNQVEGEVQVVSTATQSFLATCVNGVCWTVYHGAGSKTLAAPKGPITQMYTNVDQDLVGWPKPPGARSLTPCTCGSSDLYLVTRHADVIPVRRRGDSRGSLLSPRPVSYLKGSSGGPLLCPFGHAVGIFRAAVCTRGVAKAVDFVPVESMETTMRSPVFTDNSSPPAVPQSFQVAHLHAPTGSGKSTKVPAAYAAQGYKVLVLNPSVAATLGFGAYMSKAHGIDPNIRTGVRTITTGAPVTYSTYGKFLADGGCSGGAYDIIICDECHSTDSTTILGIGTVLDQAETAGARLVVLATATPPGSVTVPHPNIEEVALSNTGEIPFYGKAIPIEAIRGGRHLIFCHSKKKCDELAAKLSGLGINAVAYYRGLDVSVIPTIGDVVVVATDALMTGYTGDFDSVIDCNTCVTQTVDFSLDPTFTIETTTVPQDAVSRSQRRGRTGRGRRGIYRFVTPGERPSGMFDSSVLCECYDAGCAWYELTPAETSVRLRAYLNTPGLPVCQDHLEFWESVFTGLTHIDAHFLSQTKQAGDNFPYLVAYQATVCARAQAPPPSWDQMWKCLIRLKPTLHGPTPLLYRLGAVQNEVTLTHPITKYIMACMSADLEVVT

| Compound | IC50 [1, 3] [µM] | EC50 [2, 4] [µM] | also measured |
| --- | --- | --- | --- |
| C[C@H](CC(=O)NCCN)NCc1ccc(Cl)c(Oc2ccccc2)c1F [Example 107, (R)—N-(2-Amino-ethyl)-3-(4-chloro-2-fluoro-3-phenoxy-benzylamino)-butyramide.dihydrochloride] | 0.22 | > 10 | – |
| Fc1ccc(CNc2ccncc2)c(F)c1Oc1ccccc1 [Example 110, (2,4-Difluoro-3-phenoxy-benzyl)-pyridin-4-yl-amine.hydrochloride] | 2.6 | 2.3 | – |
| CC[C@@H](N)c1ccc(Cl)c(Oc2ccc(N)c(C)c2)c1F [Example 112, 4-[3-((R)-1-Amino-propyl)-6-chloro-2-fluoro-phenoxy]-2-methyl-phenylamine.dihydrochloride] | 0.16 | > 10 | – |
| CC[C@H](N)c1ccc(Cl)c(Oc2ccc(N)nc2)c1F [Example 114] | 1 | > 10 | – |
| CC[C@@H](N)c1ccc(Cl)c(Oc2cccc(CO)c2)c1F [Example 115] | 1.8 | > 10 | – |
| CC[C@@H](N[C@@H](C)CC(N)=O)c1ccc(Cl)c(Oc2cccc(CO)c2)c1F [Example 116] | 0.13 | 0.19 | – |
| CCC[C@@H](N)c1ccc(Cl)c(Oc2ccccc2)c1F [Example 118] | 1.7 | 4.4 | – |
| CCC[C@H](N)c1ccc(Cl)c(Oc2ccccc2)c1F [Example 119] | 0.32 | 3.4 | – |
| CC[C@@H](N[C@H](C)CC(N)=O)c1ccc(Cl)c(Oc2ccc(N)nc2)c1F [Example 123] | 1.6 | 4.7 | – |
| CC[C@@H](N[C@@H](C)CC(N)=O)c1ccc(Cl)c(Oc2ccc(N)nc2)c1F [Example 124] | 0.11 | 0.28 | – |
| CCC[C@@H](N[C@@H](C)CC(N)=O)c1ccc(Cl)c(Oc2ccccc2)c1F [Example 125] | 0.23 | 0.38 | – |
| CC[C@@H](N[C@@H](C)CC(N)=O)c1ccc(Cl)c(Oc2ccc(N)c(C)c2)c1F [Example 127] | 0.11 | 0.014 | – |
| CC[C@@H](N[C@H](C)CC(N)=O)c1ccc(Cl)c(Oc2ccc(N)c(C)c2)c1F [Example 128] | 1.2 | > 10 | – |
| CC[C@@H](N[C@@H](C)CC(=O)NC)c1ccc(Cl)c(Oc2ccccc2)c1F [Example 131A, (S)-3-[(R)-1-(4-Chloro-2-fluoro-3-phenoxy-phenyl)-propylamino]-N-methyl-butyramide.hydrochloride] | 1.2 | > 10 | – |
| CC[C@@H](CC(N)=O)N[C@H](CC)c1ccc(Cl)c(Oc2ccccc2)c1F [Example 134B, (S)-3-[(R)-1-(4-Chloro-2-fluoro-3-phenoxy-phenyl)-propylamino]-pentanoic acid amide.hydrochloride] | 0.084 | 0.4 | – |
| CC[C@H](Nc1cccc2c1CNCC2)c1ccc(F)c(Oc2ccccc2)c1F [Example 137] | 0.45 | 7.8 | – |
| CC[C@@H](N[C@H](CC(N)=O)C(C)C)c1ccc(Cl)c(Oc2ccccc2)c1F [Example 143] | 0.54 | 6.2 | – |
| CC[C@@H](N[C@@H](C)c1cn[nH]c1)c1ccc(Cl)c(Oc2ccccc2)c1F [Example 145A, [(R)-1-(4-Chloro-2-fluoro-3-phenoxy-phenyl)-propyl]-[(S)-1-(1H-pyrazol-4-yl)-ethyl]-amine. dihydrochloride] | 7.4 | 9.5 | – |
| CC[C@@H](N[C@@H](C)CC(=O)NN)c1ccc(Cl)c(Oc2ccccc2)c1F [Example 154] | 0.18 | 17 | – |
| CC[C@@H](N[C@@H](C)CC(=O)NOC)c1ccc(Cl)c(Oc2ccccc2)c1F [Example 155] | 1.7 | > 10 | – |
| CC[C@@H](N[C@H](C)c1cc[nH]c1)c1ccc(Cl)c(Oc2ccccc2)c1F [Example 163, [(R)-1-(4-Chloro-2-fluoro-3-phenoxy-phenyl)-propyl]-1-[(R)-1-(1H-pyrrol-3-yl)-ethyl]-amine.dihydrochloride] | 2.5 | 0.94 | – |

| Compound | IC50 [1, 3] [µM] | EC50 [2, 4] [µM] | also measured |
| --- | --- | --- | --- |
| CC[C@@H](N[C@@H](C)c1cc[nH]c1)c1ccc(Cl)c(Oc2ccccc2)c1F [Example 164] | 0.27 | 2.3 | – |
| CC[C@@H](N[C@H](CC(N)=O)C1CC1)c1ccc(Cl)c(Oc2ccccc2)c1F [Example 165] | – | > 10 | IC50 ([1]; IC50 values of 10-150 μM against the protease activity of the full length NS34a, or at least 40% inhibition of protease activity at a concentration of 100 μM): 10 to 150 µM |
| CC[C@@H](N[C@@H](C)CC(=O)NCC(N)=O)c1ccc(Cl)c(Oc2ccccc2)c1F [Example 178] | 2.2 | 8 | – |
| CC[C@@H](N[C@@H](C)CC(N)=O)c1ccc(Cl)c(Oc2ccc(C#N)cc2)c1F [Example 186] | 0.039 | 0.13 | – |
| CC[C@@H](N[C@@H](C)CC(N)=O)c1ccc(Cl)c(Oc2cccc(NS(C)(=O)=O)c2)c1F [Example 196] | 0.42 | 0.27 | – |
| CC[C@@H](N[C@@H](C)CC(N)=O)c1ccc(Cl)c(Oc2ccc([N+](=O)[O-])cc2)c1F [Example 201] | 0.2 | > 10 | – |
| CC[C@@H](N[C@@H](C)CC(=O)N[C@H](C)CO)c1ccc(Cl)c(Oc2ccccc2)c1F [Example 207] | 0.21 | – | EC50 [2, 5]: > 10 µM |
| CC[C@@H](N[C@@H](C)CC(N)=O)c1ccc(Cl)c(Oc2ccc(C#N)c(OC)c2)c1F [Example 210] | 0.16 | – | EC50 [2, 5]: 0.2 µM |
| CC[C@@H](N[C@@H](C)CC(N)=O)c1ccc(Cl)c(Oc2ccc(CC#N)cc2)c1F [Example 211] | 0.072 | – | EC50 [2, 5]: 0.066 µM |
| CC[C@@H](N[C@H](C)CC(N)=O)c1ccc(Cl)c(Oc2ccc(CC#N)cc2)c1F [Example 212] | 0.82 | – | EC50 [2, 5]: > 10 µM |
| CC[C@@H](N[C@@H](C)CC(N)=O)c1ccc(Cl)c(Oc2ccc(C#N)c(F)c2)c1F [Example 213] | 0.13 | 5.2 | – |
| CC[C@@H](N[C@@H](C)CC(N)=O)c1ccc(Cl)c(Oc2cccc(CNS(C)(=O)=O)c2)c1F [Example 216] | 0.97 | > 10 | – |
| CC[C@@H](N[C@@H](C)CC(N)=O)c1ccc(Cl)c(Oc2ccc(-c3cnco3)cc2)c1F [Example 219] | 0.22 | 0.32 | – |
| CC[C@@H](N)c1ccc(Cl)c(Oc2ccc(C#N)c(C)c2)c1F [Example 221] | 0.43 | > 30 | – |
| CC[C@@H](N[C@@H](C)CC(=O)NC1COC1)c1ccc(Cl)c(Oc2ccccc2)c1F [Example 222] | 0.37 | > 10 | – |
| CC[C@@H](N[C@H](C)CC(=O)NCCN)c1ccc(Cl)c(Oc2ccccc2)c1F [Example 223, (R)—N-(2-Amino-ethyl)-3-[(R)-1-(4-chloro-2-fluoro-3-phenoxy-phenyl)-propylamino]-butyramide.dihydrochloride] | – | > 30 | IC50 ([1]; Activity IC50 (μM), protease activity of full length NS34a, FRET peptide substrate): 0.081 µM |
| CC[C@@H](N[C@@H](C)CC(=O)NCCN)c1ccc(Cl)c(Oc2ccccc2)c1F [Example 224] | – | 0.0088 | inhibition at 0.01 µM ([1]; read-out: Activity % inhibition @ 0.01 μM): 65.5% |
| Cc1cc(Oc2c(F)ccc(CNc3ccncc3)c2F)ccc1N [Example 225B, [3-(4-Amino-3-methyl-phenoxy)-2,4-difluoro-benzyl]-pyridin-4-yl-amine. hydrochloride] | 0.73 | 0.68 | – |
| CC[C@@H](N[C@@H](C)CC(N)=O)c1ccc(Cl)c(Oc2cccc(C#N)c2)c1F [Example 226] | 0.2 | 2.9 | – |
| C#Cc1ccc(Oc2c(Cl)ccc([C@@H](CC)N[C@@H](C)CC(N)=O)c2F)cc1 [Example 230] | 0.17 | 0.48 | – |
